# Data: PubChem BioAssay AID330 (DTP/NCI, 2004)
# Values joined by “and” are separate entries in the source; they are usually repeats but may differ in a detail not shown here. Equal entries are not always repeated. Inconclusive results and toxic doses are left out.
# Test system: P388 leukemia ip, CD2F1 mice, survival T/C
# Assay: NCI In Vivo Anticancer Drug Screen. Data for tumor model P388 Leukemia (intraperitoneal) in CD2F1 (CDF1) mice
# Conditions: endpoint: median survival time, higher = longer survival
# Method in brief: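 Mice carrying the transplanted tumor received test compound or vehicle. Survival was recorded in each group, and the value is the treated-group measurement divided by that of the vehicle-treated control group.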
# [1] = dose: 50.0 mg/kg/injection, schedule: Q01DX005 (ip), vehicle: saline with Tween-80
# [2] = dose: 100.0 mg/kg/injection, schedule: Q01DX005 (ip), vehicle: saline with Tween-80
# [3] = dose: 200.0 mg/kg/injection, schedule: Q01DX005 (ip), vehicle: saline with Tween-80
# [4] = dose: 50.0 mg/kg/injection, schedule: Q01DX009 (ip), vehicle: saline with Tween-80
# [5] = dose: 100.0 mg/kg/injection, schedule: Q01DX009 (ip), vehicle: saline with Tween-80
# [6] = dose: 200.0 mg/kg/injection, schedule: Q01DX009 (ip), vehicle: saline with Tween-80
# [7] = dose: 60.0 mg/kg/injection, schedule: Q01DX005 (ip), vehicle: saline with Tween-80
# [8] = dose: 25.0 mg/kg/injection, schedule: Q01DX009 (ip), vehicle: Klucel (hydroxypropylcellulose) (HPC)
# [9] = dose: 50.0 mg/kg/injection, schedule: Q01DX009 (ip), vehicle: Klucel (hydroxypropylcellulose) (HPC)
# [10] = dose: 100.0 mg/kg/injection, schedule: Q01DX009 (ip), vehicle: Klucel (hydroxypropylcellulose) (HPC)
# [11] = dose: 200.0 mg/kg/injection, schedule: Q01DX009 (ip), vehicle: Klucel (hydroxypropylcellulose) (HPC)
# [12] = dose: 50.0 mg/kg/injection, schedule: Q01DX005 (ip), vehicle: Klucel (hydroxypropylcellulose) (HPC)
# [13] = dose: 100.0 mg/kg/injection, schedule: Q01DX005 (ip), vehicle: Klucel (hydroxypropylcellulose) (HPC)
# [14] = dose: 200.0 mg/kg/injection, schedule: Q01DX005 (ip), vehicle: Klucel (hydroxypropylcellulose) (HPC)
# [15] = dose: 100.0 mg/kg/injection, schedule: Q04DX003 (ip), vehicle: Klucel (hydroxypropylcellulose) (HPC)
# [16] = dose: 100.0 mg/kg/injection, schedule: Q01DX001 (ip), vehicle: saline with Tween-80
# [17] = dose: 200.0 mg/kg/injection, schedule: Q01DX001 (ip), vehicle: saline with Tween-80
# [18] = dose: 400.0 mg/kg/injection, schedule: Q01DX001 (ip), vehicle: saline with Tween-80
smiles,measurement,setting,value
CCCc1nc(NC(=O)c2ccccc2)nc(NC(=O)c2ccccc2)n1,T/C,[1],102 % of control
same,T/C,[2],106 % of control
same,T/C,[3],106 % of control
COc1cc(NCC(C)(O)CN2CCCCC2)c2ncccc2c1 (stereo not drawn),T/C,"dose: 12.5 mg/kg/injection, schedule: Q01DX005 (ip), vehicle: saline",94 % of control
same,T/C,"dose: 25.0 mg/kg/injection, schedule: Q01DX005 (ip), vehicle: saline",98 % of control
same,T/C,"dose: 50.0 mg/kg/injection, schedule: Q01DX005 (ip), vehicle: saline",93 % of control and 97 % of control
O=C(Nc1ccc(Cl)c(Cl)c1)NC1CC1,T/C,[4],119 % of control
same,T/C,[5],102 % of control
same,T/C,[6],93 % of control
COC(=O)c1nc(NN)[nH]c(=O)c1C,T/C,"dose: 15.0 mg/kg/injection, schedule: Q01DX005 (ip), vehicle: saline with Tween-80",103 % of control
same,T/C,"dose: 30.0 mg/kg/injection, schedule: Q01DX005 (ip), vehicle: saline with Tween-80",98 % of control
same,T/C,[7],99 % of control and 97 % of control
Cc1cc(Nc2nnc(-c3cccnc3Oc3ccccc3)s2)ccc1Br,T/C,"dose: 12.5 mg/kg/injection, schedule: Q01DX009 (ip), vehicle: saline with Tween-80",88 % of control
same,T/C,"dose: 25.0 mg/kg/injection, schedule: Q01DX009 (ip), vehicle: saline with Tween-80",92 % of control
same,T/C,[4],105 % of control and 91 % of control
same,T/C,[5],94 % of control
same,T/C,[6],103 % of control
CSc1cc(C)[o+]c(C)c1,T/C,[8],101 % of control
same,T/C,[9],113 % of control and 92 % of control
same,T/C,[10],106 % of control and 107 % of control
same,T/C,[11],122 % of control
O=C1c2ccccc2-n2c1nc1ccc([N+](=O)[O-])cc1c2=O,T/C,[12],103 % of control
same,T/C,[13],97 % of control
same,T/C,[14],94 % of control
same,T/C,"dose: 400.0 mg/kg/injection, schedule: Q04DX002 (ip), vehicle: Klucel (hydroxypropylcellulose) (HPC)",96 % of control
FC(F)(F)COP(=S)(OCC(F)(F)F)OCC(F)(F)F,T/C,[1],107 % of control
same,T/C,[2],108 % of control
same,T/C,[3],110 % of control
COC(=O)C(Cc1ccccc1)NC(=O)C(Cc1c[nH]c2ccccc12)NC(=O)OC(C)(C)C (stereo not drawn),T/C,[9],95 % of control
same,T/C,[10],87 % of control
same,T/C,[11],108 % of control
Cc1nc2sccc2c(=O)n1C,T/C,[12],97 % of control
same,T/C,[13],98 % of control
same,T/C,[14],103 % of control
O=C1NN2CCCN=C2c2ccncc21,T/C,"dose: 60.0 mg/kg/injection, schedule: Q01DX005 (ip), vehicle: saline",98 % of control
same,T/C,"dose: 120.0 mg/kg/injection, schedule: Q01DX005 (ip), vehicle: saline",97 % of control
same,T/C,"dose: 240.0 mg/kg/injection, schedule: Q01DX005 (ip), vehicle: saline",93 % of control
O=[N+]([O-])c1ccc(/C=C/C=C/c2ccc(Cl)c(S(=O)(=O)F)c2)c(Cl)c1,T/C,"dose: 100.0 mg/kg/injection, schedule: Q01DX009 (ip), vehicle: saline sonified",95 % of control
same,T/C,"dose: 200.0 mg/kg/injection, schedule: Q01DX009 (ip), vehicle: saline sonified",95 % of control
same,T/C,"dose: 400.0 mg/kg/injection, schedule: Q01DX009 (ip), vehicle: saline sonified",91 % of control
COC1=CP(C)(=S)CC1 (stereo not drawn),T/C,[15],112 % of control
same,T/C,"dose: 200.0 mg/kg/injection, schedule: Q04DX003 (ip), vehicle: Klucel (hydroxypropylcellulose) (HPC)",98 % of control
CC(NCCCCCCNC(C)C(=O)O)C(=O)O (stereo not drawn),T/C,[1],105 % of control
same,T/C,[2],100 % of control
same,T/C,[3],117 % of control
CCC(c1ccc(OC)cc1)C(NC(=S)Nc1ccc(Cl)cc1)c1ccc(OC)cc1 (stereo not drawn),T/C,[16],90 % of control
same,T/C,[17],90 % of control
same,T/C,[18],109 % of control
COc1cccc(C)c1C(O)CC1CCCN1 (stereo not drawn),T/C,[9],106 % of control
same,T/C,[10],102 % of control
NC(=S)N/N=C/c1cn(-c2ccc([N+](=O)[O-])cc2)cn1,T/C,"dose: 25.0 mg/kg/injection, schedule: Q04DX003 (ip), vehicle: Klucel (hydroxypropylcellulose) (HPC)",86 % of control
same,T/C,"dose: 50.0 mg/kg/injection, schedule: Q04DX003 (ip), vehicle: Klucel (hydroxypropylcellulose) (HPC)",86 % of control
same,T/C,[15],94 % of control
OCc1ccn2c1C(O)CC2 (stereo not drawn),T/C,"dose: 12.5 mg/kg/injection, schedule: Q01DX009 (ip), vehicle: saline",124 % of control
same,T/C,"dose: 50.0 mg/kg/injection, schedule: Q01DX009 (ip), vehicle: saline",113 % of control
same,T/C,"dose: 100.0 mg/kg/injection, schedule: Q01DX009 (ip), vehicle: saline",201 % of control
same,T/C,"dose: 200.0 mg/kg/injection, schedule: Q01DX009 (ip), vehicle: saline",157 % of control
CCOC(=O)c1c(C)c2c(n1C)CCc1cn[nH]c1-2,T/C,[8],99 % of control
same,T/C,[9],105 % of control
same,T/C,[10],107 % of control
same,T/C,[11],107 % of control
same,T/C,"dose: 400.0 mg/kg/injection, schedule: Q01DX009 (ip), vehicle: Klucel (hydroxypropylcellulose) (HPC)",98 % of control
same,T/C,"dose: 600.0 mg/kg/injection, schedule: Q01DX009 (ip), vehicle: Klucel (hydroxypropylcellulose) (HPC)",98 % of control
CC(C)CCC1(CCCl)C(=O)NC(=O)NC1=O,T/C,[12],102 % of control
same,T/C,[13],106 % of control
CCC(C)C(=O)OC1CC2(C)C(c3ccoc3)OC(=O)CC23OC2(C)OC34C(OC(=O)C(C)C)C3(O)C(OC(=O)C5(C)OC5C)C5(C)CC3(O)C(C)(C5CC(=O)OC)C14O2 (stereo not drawn),T/C,[8],93 % of control
same,T/C,[9],104 % of control
same,T/C,[10],102 % of control
same,T/C,[11],99 % of control
CCOC(=O)c1[nH]ncc1[N+](=O)[O-],T/C,[16],103 % of control
same,T/C,[17],102 % of control
same,T/C,[18],102 % of control
O=C1CSC2=NCCN12,T/C,"dose: 50.0 mg/kg/injection, schedule: Q01DX009 (ip), vehicle: suspension in saline",101 % of control
same,T/C,"dose: 100.0 mg/kg/injection, schedule: Q01DX009 (ip), vehicle: suspension in saline",107 % of control
same,T/C,"dose: 200.0 mg/kg/injection, schedule: Q01DX009 (ip), vehicle: suspension in saline",115 % of control
CCC[CH2][Sn]([CH2]CCC)([O][P+](=O)C[Si](C)(C)c1ccccc1)[O][P+](=O)C[Si](C)(C)c1ccccc1 (stereo not drawn),T/C,[7],108 % of control
same,T/C,"dose: 120.0 mg/kg/injection, schedule: Q01DX005 (ip), vehicle: saline with Tween-80",115 % of control
same,T/C,"dose: 240.0 mg/kg/injection, schedule: Q01DX005 (ip), vehicle: saline with Tween-80",122 % of control
